In US10238670B2, “9-aminomethyl minocycline compounds and methods of use thereof in urinary tract infection (UTI) treatment” (Paratek Pharmaceuticals, Inc., priority 2016, dated 2019):
Values after ≈ are worked out from the molar mass of the structure shown.

What was measured:
Assay in all cases: In vitro MIC, 2010 surveillance isolates
MR CoNS = assay type: cell-based, Coagulase-Negative Staphylococcus
MRSA = assay type: cell-based
E. faecium VS = assay type: cell-based
E. faecalis VNS = assay type: cell-based
E. faecalis VS = assay type: cell-based
MS CoNS = assay type: cell-based, Coagulase-Negative Staphylococcus
MSSA = assay type: cell-based
E. faecium VNS = assay type: cell-based

CN[C@H](CC(C)C)C(=O)N[C@H]1C(=O)N[C@@H](CC(N)=O)C(=O)N[C@H]2C(=O)N[C@H]3C(=O)N[C@H](C(=O)N[C@H](C(=O)O)c4cc(O)cc(O)c4-c4cc3ccc4O)[C@H](O)c3ccc(c(Cl)c3)Oc3cc2cc(c3O[C@@H]2O[C@H](CO)[C@@H](O)[C@H](O)[C@H]2O[C@H]2C[C@](C)(N)[C@H](O)[C@H](C)O2)Oc2ccc(cc2Cl)[C@H]1O [Vancomycin]
% R (resistance) (MR CoNS; Asia/Pac, Eucast breakpoints): 1.3%
MIC90 (MR CoNS; Asia/Pac, N=77): 2 mg/L (≈ 1.38 µM)
% R (resistance) (MR CoNS; Europe, Eucast breakpoints): 0.4%
MIC90 (MR CoNS; Europe, N=510): 2 mg/L (≈ 1.38 µM)
% R (resistance) (MR CoNS; L. Amer, CLSI breakpoints): 0%
MIC90 (MR CoNS; L. Amer, N=301): 2 mg/L (≈ 1.38 µM)
% R (resistance) (MR CoNS; N America, CLSI breakpoints): 0%
MIC90 (MR CoNS; N America, N=461): 2 mg/L (≈ 1.38 µM)
% R (resistance) (MRSA; Asia/Pac, Eucast breakpoints): 0%
MIC90 (MRSA; Asia/Pac, N=428): 1 mg/L (≈ 0.69 µM)
% R (resistance) (MRSA; Europe, Eucast breakpoints): 0%
MIC90 (MRSA; Europe, N=750): 1 mg/L (≈ 0.69 µM)
% R (resistance) (MRSA; L. Amer, CLSI breakpoints): 0%
MIC90 (MRSA; L. Amer, N=506): 1 mg/L (≈ 0.69 µM)
% R (resistance) (MRSA; N America, CLSI breakpoints): 0%
MIC90 (MRSA; N America, N=2508): 1 mg/L (≈ 0.69 µM)
% R (resistance) (E. faecium VS; Asia/Pac, Eucast breakpoints): 0%
MIC90 (E. faecium VS; Asia/Pac, N=106): 1 mg/L (≈ 0.69 µM)
% R (resistance) (E. faecium VS; Europe, Eucast breakpoints): 0%
MIC90 (E. faecium VS; Europe, N=303): 1 mg/L (≈ 0.69 µM)
% R (resistance) (E. faecium VS; L. Amer, CLSI breakpoints): 0%
MIC90 (E. faecium VS; L. Amer, N=51): 1 mg/L (≈ 0.69 µM)
% R (resistance) (E. faecium VS; N America, CLSI breakpoints): 0%
MIC90 (E. faecium VS; N America, N=115): 1 mg/L (≈ 0.69 µM)
range of MICs (N <10, shown instead of MIC90) (E. faecalis VNS; Asia/Pac, N=1): >16
% R (resistance) (E. faecalis VNS; Europe, Eucast breakpoints): 100%
range of MICs (N <10, shown instead of MIC90) (E. faecalis VNS; Europe, N=8): > 16
% R (resistance) (E. faecalis VNS; L. Amer, CLSI breakpoints): 100%
range of MICs (N <10, shown instead of MIC90) (E. faecalis VNS; L. Amer, N=7): > 16
% R (resistance) (E. faecalis VNS; N America, CLSI breakpoints): 92.1%
MIC90 (E. faecalis VNS; N America, N=38): > 16 mg/L
% R (resistance) (E. faecalis VS; Asia/Pac, Eucast breakpoints): 0%
MIC90 (E. faecalis VS; Asia/Pac, N=214): 2 mg/L (≈ 1.38 µM)
% R (resistance) (E. faecalis VS; Europe, Eucast breakpoints): 0%
MIC90 (E. faecalis VS; Europe, N=669): 2 mg/L (≈ 1.38 µM)
% R (resistance) (E. faecalis VS; L. Amer, CLSI breakpoints): 0%
MIC90 (E. faecalis VS; L. Amer, N=290): 2 mg/L (≈ 1.38 µM)
% R (resistance) (E. faecalis VS; N America, CLSI breakpoints): 0%
MIC90 (E. faecalis VS; N America, N=863): 2 mg/L (≈ 1.38 µM)
% R (resistance) (MS CoNS; Asia/Pac, Eucast breakpoints): 0%
MIC90 (MS CoNS; Asia/Pac, N=18): 2 mg/L (≈ 1.38 µM)
% R (resistance) (MS CoNS; Europe, Eucast breakpoints): 1.1%
MIC90 (MS CoNS; Europe, N=185): 2 mg/L (≈ 1.38 µM)
% R (resistance) (MS CoNS; L. Amer, CLSI breakpoints): 0%
MIC90 (MS CoNS; L. Amer, N=67): 2 mg/L (≈ 1.38 µM)
% R (resistance) (MS CoNS; N America, CLSI breakpoints): 0%
MIC90 (MS CoNS; N America, N=191): 2 mg/L (≈ 1.38 µM)
% R (resistance) (MSSA; Asia/Pac, Eucast breakpoints): 0%
MIC90 (MSSA; Asia/Pac, N=641): 1 mg/L (≈ 0.69 µM)
% R (resistance) (MSSA; Europe, Eucast breakpoints): 0%
MIC90 (MSSA; Europe, N=2109): 1 mg/L (≈ 0.69 µM)
% R (resistance) (MSSA; L. Amer, CLSI breakpoints): 0%
MIC90 (MSSA; L. Amer, N=590): 1 mg/L (≈ 0.69 µM)
% R (resistance) (MSSA; N America, CLSI breakpoints): 0%
MIC90 (MSSA; N America, N=2373): 1 mg/L (≈ 0.69 µM)
% R (resistance) (E. faecium VNS; Asia/Pac, Eucast breakpoints): 100%
MIC90 (E. faecium VNS; Asia/Pac, N=24): > 16 mg/L
% R (resistance) (E. faecium VNS; Europe, Eucast breakpoints): 100%
MIC90 (E. faecium VNS; Europe, N=71): > 16 mg/L
% R (resistance) (E. faecium VNS; L. Amer, CLSI breakpoints): 100%
MIC90 (E. faecium VNS; L. Amer, N=41): > 16 mg/L
% R (resistance) (E. faecium VNS; N America, CLSI breakpoints): 99.4%
MIC90 (E. faecium VNS; N America, N=478): > 16 mg/L
